Measured values as given in ChEMBL document CHEMBL1773036, “Scalarane sesterterpenes from the sponge Hyatella sp” (J Nat Prod, 2011).
Values after ≈ are worked out from the molar mass of the structure shown.

How the values were obtained:
K562 = test: Cytotoxicity against human K562 cells by MTT assay; format: functional; conditions: read-out: LC50 (the source's name)
Escherichia coli = test: Antibacterial activity against Escherichia coli ATCC 25922 after 24 hrs by twofold serial dilution method; format: functional; conditions: ATCC 25922, 24 h
Proteus vulgaris = test: Antibacterial activity against Proteus vulgaris ATCC 3851 after 24 hrs by twofold serial dilution method; format: functional; conditions: ATCC 3851, 24 h
Salmonella typhimurium = test: Antibacterial activity against Salmonella typhimurium ATCC 14028 after 24 hrs by twofold serial dilution method; format: functional, Salmonella enterica subsp. enterica serovar Typhimurium; conditions: Salmonella enterica, ATCC 14028, 24 h
Micrococcus luteus = test: Antibacterial activity against Micrococcus luteus IFO 12708 after 24 hrs by twofold serial dilution method; format: functional; conditions: IFO 12708, 24 h
Bacillus subtilis = test: Antibacterial activity against Bacillus subtilis ATCC 6633 after 24 hrs by twofold serial dilution method; format: functional; conditions: ATCC 6633, 24 h
Staphylococcus aureus = test: Antibacterial activity against Staphylococcus aureus ATCC 6538p after 24 hrs by twofold serial dilution method; format: functional
[1] = Inhibition of Magnaporthe grisea Guy 11 isocitrate lyase; design: species or system Pyricularia oryzae

SMILES: CO[C@@H]1OCC2=CC[C@H]3[C@]4(C)CC[C@H]5C(C)(C)CCC[C@]5(C)[C@H]4C[C@@H](O)[C@]3(C)[C@H]21
- CC50 (K562): 24.6 µM
- MIC (Escherichia coli): > 100 µg/mL
- MIC (Proteus vulgaris): > 100 µg/mL
- MIC (Salmonella typhimurium): > 100 µg/mL
- MIC (Micrococcus luteus): > 100 µg/mL
- MIC (Bacillus subtilis): > 100 µg/mL
- MIC (Staphylococcus aureus): > 100 µg/mL

SMILES: CC(=O)OC[C@]12CCCC(C)(C)[C@@H]1CC[C@]1(C)[C@@H]2C[C@@H](O)[C@]2(C)[C@@H]3C(=CC[C@@H]12)CO[C@H]3O
- CC50 (K562): 19.5 µM
- MIC (Escherichia coli): > 100 µg/mL
- MIC (Proteus vulgaris): 12.6 µg/mL (≈ 28.2 µM)
- MIC (Salmonella typhimurium): 12.5 µg/mL (≈ 28 µM)
- MIC (Micrococcus luteus): 12.5 µg/mL (≈ 28 µM)
- MIC (Bacillus subtilis): 6.25 µg/mL (≈ 14 µM)
- MIC (Staphylococcus aureus): 25 µg/mL (≈ 56 µM)
- IC50 [1]: 107 µM

SMILES: CO[C@@H]1OC(=O)C2=CC[C@H]3[C@]4(C)CC[C@H]5C(C)(C)CCC[C@]5(C)[C@H]4C[C@@H](OC(C)=O)[C@]3(C)[C@H]21
- CC50 (K562): 38.4 µM
- MIC (Escherichia coli): > 100 µg/mL
- MIC (Proteus vulgaris): > 100 µg/mL
- MIC (Salmonella typhimurium): > 100 µg/mL
- MIC (Micrococcus luteus): > 100 µg/mL
- MIC (Bacillus subtilis): > 100 µg/mL
- MIC (Staphylococcus aureus): > 100 µg/mL
- IC50 [1]: 40.8 µM

SMILES: CC(=O)O[C@@H]1C[C@@H]2[C@@]3(C)CCCC(C)(C)[C@@H]3CC[C@@]2(C)[C@@H]2CC=C3C(=O)O[C@@H](O)[C@@H]3[C@@]12C
- CC50 (K562): 28.3 µM
- MIC (Escherichia coli): > 100 µg/mL
- MIC (Proteus vulgaris): 6.25 µg/mL (≈ 14.1 µM)
- MIC (Salmonella typhimurium): > 100 µg/mL
- MIC (Micrococcus luteus): > 100 µg/mL
- MIC (Bacillus subtilis): 6.25 µg/mL (≈ 14.1 µM)
- MIC (Staphylococcus aureus): > 100 µg/mL
- IC50 [1]: 112 µM

SMILES: COc1cccc2c1C(=O)c1c(O)c3c(c(O)c1C2=O)C[C@@](O)(C(=O)CO)C[C@@H]3O[C@H]1C[C@H](N)[C@H](O)[C@H](C)O1 [DOXORUBICIN]
- CC50 (K562): 9.7 µM

SMILES: CO[C@@H]1OCC2=CC[C@H]3[C@]4(C)CC[C@H]5C(C)(C)CCC[C@]5(C)[C@H]4C[C@@H](OC(C)=O)[C@]3(C)[C@H]21
- CC50 (K562): > 100 µM
- MIC (Escherichia coli): > 100 µg/mL
- MIC (Proteus vulgaris): > 100 µg/mL
- MIC (Salmonella typhimurium): > 100 µg/mL
- MIC (Micrococcus luteus): > 100 µg/mL
- MIC (Bacillus subtilis): > 100 µg/mL
- MIC (Staphylococcus aureus): > 100 µg/mL

SMILES: CC1(C)S[C@@H]2[C@H](NC(=O)[C@H](N)c3ccccc3)C(=O)N2[C@H]1C(=O)O [AMPICILLIN]
- MIC (Escherichia coli): 6.25 µg/mL (≈ 17.9 µM)
- MIC (Proteus vulgaris): 1.56 µg/mL (≈ 4.46 µM)
- MIC (Salmonella typhimurium): 1.56 µg/mL (≈ 4.46 µM)
- MIC (Micrococcus luteus): 0.39 µg/mL (≈ 1.12 µM)
- MIC (Bacillus subtilis): 0.78 µg/mL (≈ 2.23 µM)
- MIC (Staphylococcus aureus): 1.56 µg/mL (≈ 4.46 µM)

SMILES: CC(=O)O[C@@H]1C[C@@H]2[C@@]3(C)CCCC(C)(C)[C@@H]3CC[C@@]2(C)[C@@H]2CC=C3CO[C@@H](O)[C@@H]3[C@@]12C
- CC50 (K562): 31.3 µM
- MIC (Escherichia coli): > 100 µg/mL
- MIC (Proteus vulgaris): > 100 µg/mL
- MIC (Salmonella typhimurium): > 100 µg/mL
- MIC (Micrococcus luteus): > 100 µg/mL
- MIC (Bacillus subtilis): > 100 µg/mL
- MIC (Staphylococcus aureus): > 100 µg/mL
- IC50 [1]: 55.3 µM

SMILES: CO[C@@H]1C[C@H]2[C@]3(C)CC[C@H]4C(C)(C)CCC[C@]4(C)[C@H]3C[C@@H](OC(C)=O)[C@]2(C)C2=C1[C@H](O)OC2=O (mixture of isomers)
- CC50 (K562): 14.8 µM
- MIC (Escherichia coli): > 100 µg/mL
- MIC (Proteus vulgaris): 1.56 µg/mL
- MIC (Salmonella typhimurium): 12.5 µg/mL
- MIC (Micrococcus luteus): 25 µg/mL
- MIC (Bacillus subtilis): < 0.39 µg/mL
- MIC (Staphylococcus aureus): 25 µg/mL

SMILES: CC(=O)OC[C@]12CCCC(C)(C)[C@@H]1CC[C@]1(C)[C@@H]2C[C@@H](OC(C)=O)[C@]2(C)[C@@H]3C(=CC[C@@H]12)CO[C@H]3O
- CC50 (K562): 39.5 µM
- MIC (Escherichia coli): > 100 µg/mL
- MIC (Proteus vulgaris): 3.12 µg/mL (≈ 6.39 µM)
- MIC (Salmonella typhimurium): > 100 µg/mL
- MIC (Micrococcus luteus): > 100 µg/mL
- MIC (Bacillus subtilis): 0.78 µg/mL (≈ 1.6 µM)
- MIC (Staphylococcus aureus): > 100 µg/mL

SMILES: C[C@@]1(CO)CCC[C@]2(C)[C@H]3C[C@@H](O)[C@]4(C)[C@H]5COC(=O)C5=CC[C@H]4[C@]3(C)CC[C@@H]12
- CC50 (K562): 31.1 µM
- MIC (Escherichia coli): > 100 µg/mL
- MIC (Proteus vulgaris): > 100 µg/mL
- MIC (Salmonella typhimurium): > 100 µg/mL
- MIC (Micrococcus luteus): > 100 µg/mL
- MIC (Bacillus subtilis): > 100 µg/mL
- MIC (Staphylococcus aureus): > 100 µg/mL
- IC50 [1]: 133 µM

SMILES: O=C(O)CC[N+](=O)[O-]
- IC50 [1]: 27.9 µM

SMILES: CO[C@@H]1C[C@H]2[C@]3(C)CC[C@H]4C(C)(C)CCC[C@]4(C)[C@H]3C[C@@H](OC(C)=O)[C@]2(C)C2=C1C(=O)N(CC(=O)[O-])[C@H]2OC.[Na+]
- CC50 (K562): 27 µM
- MIC (Escherichia coli): 100 µg/mL
- MIC (Proteus vulgaris): 25 µg/mL
- MIC (Salmonella typhimurium): 50 µg/mL
- MIC (Micrococcus luteus): 25 µg/mL
- MIC (Bacillus subtilis): 6.25 µg/mL
- MIC (Staphylococcus aureus): 50 µg/mL
- IC50 [1]: 176 µM

SMILES: CO[C@@H]1C[C@H]2[C@]3(C)CC[C@H]4C(C)(C)CCC[C@]4(C)[C@H]3C[C@@H](OC(C)=O)[C@]2(C)C2=C1C(=O)O[C@H]2O
- CC50 (K562): 36.7 µM
- MIC (Escherichia coli): 50 µg/mL (≈ 105 µM)
- MIC (Proteus vulgaris): 3.12 µg/mL (≈ 6.58 µM)
- MIC (Salmonella typhimurium): 12.5 µg/mL (≈ 26.3 µM)
- MIC (Micrococcus luteus): 25 µg/mL (≈ 52.7 µM)
- MIC (Bacillus subtilis): 0.78 µg/mL (≈ 1.64 µM)
- MIC (Staphylococcus aureus): 25 µg/mL (≈ 52.7 µM)
